Reference: US20080145313A1, “Compositions and Methods for the Treatment and Prevention of Neoplastic Disorders” (Genesis Research & Development Corporation Limited, priority 2006, published 2008)
Marks after values point to notes of the source that are not given here.

Experiments:
A549 cells = experiment: Growth inhibition of siRNA-transfected A549 cells, SYBR Green I DNA content; format: cell-based, human; conditions: for growth inhibition, A549 cells: standardized against control siRNA; for Growth Inhibition in A549 cells by 10 nM siRNA: transporter gene targets
Outline: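 A549 cells reverse-transfected with 10 nM Stealth siRNAs via Lipofectamine RNAiMAX, seeded at 5×10^3 cells/cm^2 in RPMI 1640/10% FCS; non-specific siRNA control. DNA content read 96 h post-transfection by SYBR Green I fluorescence (ex 485/em 535 nm) after freeze-thaw and Triton X-100 lysis; mean of three wells.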

HCT-116 p53 null cells = experiment: Growth inhibition of siRNA-transfected p53 null HCT-116 cells, SYBR Green I DNA content; format: cell-based; conditions: for growth inhibition, HCT-116 −/−p53 cells: standardized against control siRNA
Experimental: A549 cells (human lung cancer cell line; ATCC No. CCL-185), SK-MeI-5 cells (human melanoma cell line; ATCC No. HTB-70), MCF-7 cells (human adenocarcinoma cell line; ATCC No. HTB-22), HCT-116 cells (colorectal carcinoma; ATCC CCL-247) and HCT-116 p53 null cells (derived from ATCC No. CCL-247; Bunz et al., Science 282:1497-1501, 1998) were cultured in RPMI 1640 medium with 10% v/v heat-inactivated fetal calf serum (FCS). Cells were seeded at a density of 5×10^4 cells/cm^2 in multi-well tissue culture plates. Sequences of Stealth™ siRNA duplexes (Invitrogen) targeting human ribonucleotide reductase subunit 1 (SEQ ID NO: 22) and subunit 2 (SEQ ID NO; 38) are given in SEQ ID NO: 4830-4832 (DNA), and SEQ ID NO: 5136-5138 (RNA) for RRM1, and SEQ ID NO: 5306-5308 (DNA), and SEQ ID NO: 5303-5305 (RNA) for RRM2. siRNAs were transfected at different concentrations into cells using Lipofectamine™ RNAiMAX transfection reagent (Invitrogen). Non-specific siRNA (SEQ ID NO: 4804 and 4805 (DNA), and SEQ ID NO: 5301 and 5302 (RNA)) were used as controls. The cellular DNA content was measured using a SYBR Green I-based fluorometric assay at 24, 48, 72 and 96 hours after transfection (120 hours for the MCF-7 cells), as follows. At the indicated time points following reverse transfection, cells were harvested and frozen at −80° C. overnight. Cells were thawed and cell lysis buffer (phosphate-buffered saline (PBS) containing 1% Triton X-100, pH 7) and SYBR Green I (1:10^5 V/V; Invitrogen) was added to the wells and incubated overnight in the dark at 4° C.
The following day, cell lysates were mixed thoroughly, and DNA fluorescence was measured with a Wallac Victor^2 plate reader (Turku, Finland) set at an excitation frequency of 485 nm and measuring emission at 535 nm.
To determine the effect of the p53-status of cells on RRM1 and RRM2 knockdown, growth inhibition of wild type (wt) HCT-116 and p53 null HCT-116 cells by RRM1 and RRM2-targeted siRNA were determined. Cells were reverse transfected with 1.0 and 10 nM RRM1-3 (SEQ ID NO: 4832 (DNA), and SEQ ID NO: 5138 (RNA)), 1.0 and 10 nM RRM2-2 (SEQ ID NO: 5307 (DNA), and SEQ ID NO: 5304 (RNA)) or 10 nM control siRNA (SEQ ID NO: 4804 (DNA), and SEQ ID NO: 5301 (RNA)), and growth measured daily for up to 4 days post transfection.
siRNA-mediated RNAi was also determined on a panel of different cell lines. A549, SK-MeI-5, wt HCT-116, HCT-116−/−p53 and MCF-7 cells were transfected with 10 nM siRNAs targeting YBX-1 and growth inhibition determined as described above. The YBX1 siRNAs are given in SEQ ID NO: 4981 to 4985 (DNA) and SEQ ID NO: 5276-5280 (RNA). A non-specific siRNA (SEQ ID NO: 4804 (DNA) and SEQ ID NO: 5301 (RNA)) was used as control. Growth inhibition by the siRNAs, given in Table 14, was standardized against the inhibition obtained with the control siRNA.

[1] = 10 nM siRNA, DNA content 96 hours after transfection

## SEQ ID NO: 4984: siRNA targeting YBX1 (chain 1 CAAGGTAGACCAGTGAGGCAGAATA; chain 2 CAAGGUAGACCAGUGAGGCAGAAUA; chemistry not given here; one strand in two spellings)
A549 cells; 5 nM siRNA
  growth inhibition, A549 cells: ++** (At least 50% inhibition)
HCT-116 p53 null cells; 1 nM siRNA
  growth inhibition, HCT-116 −/−p53 cells: +* (At least 20% inhibition)

## SEQ ID NO: 4985: siRNA targeting YBX1 (chain 1 CAGCCTAGAGAGGACGGCAATGAAG; chain 2 CAGCCUAGAGAGGACGGCAAUGAAG; chemistry not given here; one strand in two spellings)
A549 cells; 5 nM siRNA
  growth inhibition, A549 cells: +** (At least 20% inhibition)
HCT-116 p53 null cells; 1 nM siRNA
  growth inhibition, HCT-116 −/−p53 cells: −* (No inhibition)

## SEQ ID NO: 4924: siRNA targeting SLC16A1 (MCT1) (chain 1 TTAGACTTATCTTTCCCTGCCTTGG; chain 2 UUAGACUUAUCUUUCCCUGCCUUGG; chemistry not given here; one strand in two spellings)
A549 cells; [1]
  Growth Inhibition in A549 cells by 10 nM siRNA: ++ (inhibits by at least 75%)

## SEQ ID NO: 5307: Stealth siRNA targeting RRM2 (chain 1 AATTCATCCCAATGAGCTTCACAGG; chain 2 AAUUCAUCCCAAUGAGCUUCACAGG; Stealth siRNA, chemical pattern not given here; one strand in two spellings)
A549 cells; [1]
  Growth Inhibition in A549 cells: ++ (inhibits by at least 75%)
HCT-116 p53 null cells; 1.0 and 10 nM siRNA, up to 4 days, compared with p53 wt
  growth inhibition, p53 null HCT-116: more growth inhibitory

## SEQ ID NO: 4982: siRNA targeting YBX1 (chain 1 TTTGCTGGTAATTGCGTGGAGGACC; chain 2 UUUGCUGGUAAUUGCGUGGAGGACC; chemistry not given here; one strand in two spellings)
A549 cells; 10 nM siRNA
  growth inhibition, A549 cells: +++ (At least 70% inhibition)
HCT-116 p53 null cells; 10 nM siRNA
  growth inhibition, HCT-116 −/−p53 cells: +++ (At least 70% inhibition)

## SEQ ID NO: 4932: siRNA targeting SLC29A1 (ENT1) (chain 1 TGATAAAGTAGCCGAAGGCACTTTC; chain 2 UGAUAAAGUAGCCGAAGGCACUUUC; chemistry not given here; one strand in two spellings)
A549 cells; [1]
  Growth Inhibition in A549 cells by 10 nM siRNA: − (no growth inhibition)

## SEQ ID NO: 4983: siRNA targeting YBX1 (chain 1 TACTGTGGTCGACGCCCATAGGGTC; chain 2 UACUGUGGUCGACGCCCAUAGGGUC; chemistry not given here; one strand in two spellings)
A549 cells; 10 nM siRNA
  growth inhibition, A549 cells: + (At least 20% inhibition)
